Measured values: patent US10392630B2, “Plants having increased tolerance to herbicides” (BASF AGRO B.V., priority 2013, dated 2019)
Where two headings read alike, the source gives them in different places.

Tests used:
[1] = test system: Alopecurus wildtype PPO (ALOMY), PPO herbicide sensitive PPO2, SEQ ID NO 2; experiment: PPO enzyme assay, dose-response (fluorescence), wildtype Alopecurus PPO2; type: biochemical, Alopecurus myosuroides; details: Table 3b; SEQ ID NO 2, WT
[2] = molecular target: Alopecurus mutant PPO (ALOMY), SEQ ID NO 2 with amino acid substitution; experiment: PPO enzyme assay, dose-response (fluorescence), mutated Alopecurus PPO2; type: biochemical, Alopecurus myosuroides

Molecule | IC50 [1] [nM] | also measured
C#CCN1C(=O)C(F)(F)Oc2cc(F)c(-n3c(=O)cc(C(F)(F)F)n(C)c3=O)cc21 [1-methyl-6-(trifluoromethyl)-3-(2,2,7-trifluoro-3-oxo-4-prop-2-ynyl-1,4-benzoxazin-6-yl)pyrimidine-2,4-dione] | 0.189 | 
COC(Oc1ccccc1Oc1cc(-n2c(=O)cc(C(F)(F)F)n(C)c2=O)c(F)cc1Cl)C(=O)OCC(F)F (stereo not drawn) [2,2-difluoroethyl 2-[2-[2-chloro-4-fluoro-5-[3-methyl-2,6-dioxo-4-(trifluoromethyl)pyrimidin-1-yl]phenoxy]phenoxy]-2-methoxy-acetate] | 0.335 | 
C#CCN1C(=O)C(F)(F)Oc2cc(F)c(N3C(=O)C4=C(CCCC4)C3=O)cc21 [2-(2,2,7-trifluoro-3-oxo-4-prop-2-ynyl-1,4-benzoxazin-6-yl)-4,5,6,7-tetrahydroisoindole-1,3-dione] | 0.243 | 
CCOCCOC(=O)C(OC)Oc1ccccc1Oc1cc(-n2c(=O)cc(C(F)(F)F)n(C)c2=O)c(F)cc1Cl (stereo not drawn) [2-ethoxyethyl 2-[2-[2-chloro-4-fluoro-5-[3-methyl-2,6-dioxo-4-(trifluoromethyl)pyrimidin-1-yl]phenoxy]phenoxy]-2-methoxy-acetate] | 0.816 | 
COC(Oc1ccccc1Oc1cc(-n2c(=O)cc(C(F)(F)F)n(C)c2=O)c(F)cc1Cl)C(=O)OCc1ccncc1 (stereo not drawn) [4-pyridylmethyl 2-[2-[2-chloro-4-fluoro-5-[3-methyl-2,6-dioxo-4-(trifluoromethyl)pyrimidin-1-yl]phenoxy]phenoxy]-2-methoxy-acetate] | 0.671 | 
COC(Oc1ccccc1Oc1cc(-n2c(=O)cc(C(F)(F)F)n(C)c2=O)c(F)cc1Cl)C(=O)OCC1(C)CC1 (stereo not drawn) [(1-methylcyclopropyl)methyl 2-[2-[2-chloro-4-fluoro-5-[3-methyl-2,6-dioxo-4-(trifluoromethyl)pyrimidin-1-yl]phenoxy]phenoxy]-2-methoxy-acetate] | 0.751 | 
O=C(O)c1cc(Oc2ccc(C(F)(F)F)cc2Cl)ccc1[N+](=O)[O-] [ACIFLUORFEN, 5-(2-CHLORO-4-TRIFLUOROMETHYL-PHENOXY)-2-NITRO-BENZOIC ACID] | 1140 | IC50 [2]: ≥ 10000 nM
C=CCOC(=O)C(C)(C)OC(=O)c1cc(-n2c(=O)cc(C(F)(F)F)n(C)c2=O)ccc1Cl [BUTAFENACIL] | 0.0131 | 
CCOC(=O)C(Cl)Cc1cc(-n2nc(C)n(C(F)F)c2=O)c(F)cc1Cl (stereo not drawn) [CARFENTRAZONE-ETHYL] | 1.47 | 
CCOC(=O)/C(Cl)=C/c1cc(N2C(=O)C3=C(CCCC3)C2=O)ccc1Cl [CINIDON-ETHYL, ethyl (Z)-2-chloro-3-[2-chloro-5-(1,3-dioxo-4,5,6,7-tetrahydroisoindol-2-yl)phenyl]prop-2-enoate] | 81.2 | 
C#CCN1C(=O)COc2cc(F)c(N3C(=O)C4=C(CCCC4)C3=O)cc21 [FLUMIOXAZIN, 2-(7-fluoro-3-oxo-4-prop-2-ynyl-1,4-benzoxazin-6-yl)-4,5,6,7-tetrahydroisoindole-1,3-dione] | 0.144 | 
CS(=O)(=O)NC(=O)c1cc(Oc2ccc(C(F)(F)F)cc2Cl)ccc1[N+](=O)[O-] [FOMESAFEN] | 90.3 | 
CCOC(=O)C(C)OC(=O)c1cc(Oc2ccc(C(F)(F)F)cc2Cl)ccc1[N+](=O)[O-] (stereo not drawn) [LACTOFEN, (2-ethoxy-1-methyl-2-oxo-ethyl) 5-[2-chloro-4-(trifluoromethyl)phenoxy]-2-nitro-benzoate] | 18.7 | 
CCOc1cc(Oc2ccc(C(F)(F)F)cc2Cl)ccc1[N+](=O)[O-] [OXIFLUORFEN, 2-CHLORO-1-(3-ETHOXY-4-NITROPHENOXY)-4-(TRIFLUOROMETHYL)BENZENE] | 8.24 | 
CCOC(=O)COc1ncccc1Oc1cc(-n2c(=O)cc(C(F)(F)F)n(C)c2=O)c(F)cc1Cl [S-3100, ethyl 2-[[3-[2-chloro-4-fluoro-5-[3-methyl-2,6-dioxo-4-(trifluoromethyl)pyrimidin-1-yl]phenoxy]-2-pyridyl]oxy]acetate] | 0.0645 | IC50 [2]: 950 nM; IC50 ([2]; listed as S-3101): 0.552 nM; IC50 ([2]; listed as S-3102): 2.37 nM; IC50 ([2]; listed as S-3103): 992 nM; IC50 ([2]; listed as S-3104): 12.1 nM
COC(Oc1ccccc1Oc1cc(-n2c(=O)cc(C(F)(F)F)n(C)c2=O)c(F)cc1Cl)C(=O)OC1CCCCC1 (stereo not drawn) [cyclohexyl 2-[2-[2-chloro-4-fluoro-5-[3-methyl-2,6-dioxo-4-(trifluoromethyl)pyrimidin-1-yl]phenoxy]phenoxy]-2-methoxy-acetate] | 2.99 | 
COC(=O)C(OC)Oc1ccccc1Oc1cc(-n2c(=O)cc(C(F)(F)F)n(C)c2=O)c(F)cc1Cl (stereo not drawn) [methyl 2-[2-[2-chloro-4-fluoro-5-[3-methyl-2,6-dioxo-4-(trifluoromethyl)pyrimidin-1-yl]phenoxy]phenoxy]-2-methoxy-acetate] | 0.194 | 
OXADIARGYL | 1.17 | 
